Tests used:
[1] = test system: SK-MEL-5; assay: NCI human tumor cell panel: SK-MEL-5 (Melanoma); format: cell-based; conditions: SK-MEL-5, Melanoma
[2] = test system: CAKI-1; assay: NCI human tumor cell panel: CAKI-1 (Renal Cancer); format: cell-based; conditions: CAKI-1, Renal Cancer
[3] = test system: HL-60(TB); assay: NCI human tumor cell panel: HL-60(TB) (Leukemia); format: cell-based; conditions: Leukemia, read-out: Log10 GI50 (converted)
[4] = test system: CCRF-CEM; assay: NCI human tumor cell panel: CCRF-CEM (Leukemia); format: cell-based; conditions: Leukemia
[5] = test system: NCI-H23; assay: NCI human tumor cell panel: NCI-H23 (Non-Small Cell Lung Cancer); format: cell-based; conditions: NCI-H23, Non-Small Cell Lung Cancer
[6] = test system: MDA-MB-231/ATCC; assay: NCI human tumor cell panel: MDA-MB-231/ATCC (Breast Cancer); format: cell-based; conditions: Homo sapiens, MDA-MB-231, MDA-MB-231/ATCC, Breast Cancer
[7] = test system: 786-0; assay: NCI human tumor cell panel: 786-0 (Renal Cancer); format: cell-based; conditions: 786-0, Renal Cancer
[8] = test system: OVCAR-5; assay: NCI human tumor cell panel: OVCAR-5 (Ovarian Cancer); format: cell-based; conditions: OVCAR-5, Ovarian Cancer
[9] = test system: NCI-H522; assay: NCI human tumor cell panel: NCI-H522 (Non-Small Cell Lung Cancer)
[10] = test system: BT-549; assay: NCI human tumor cell panel: BT-549 (Breast Cancer); format: cell-based; conditions: BT-549, Breast Cancer
[11] = test system: SNB-19; assay: NCI human tumor cell panel: SNB-19 (CNS Cancer); format: cell-based; conditions: SNB-19, CNS Cancer
[12] = test system: MCF7/ADR-RES; assay: NCI human tumor cell panel: MCF7/ADR-RES (Breast Cancer); format: cell-based; conditions: Breast Cancer
[13] = test system: IGROV1; assay: NCI human tumor cell panel: IGROV1 (Ovarian Cancer); format: cell-based; conditions: IGROV-1, IGROV1, Ovarian Cancer
[14] = test system: RXF-393; assay: NCI human tumor cell panel: RXF-393 (Renal Cancer); format: cell-based; conditions: RXF-393, Renal Cancer
[15] = test system: SN12C; assay: NCI human tumor cell panel: SN12C (Renal Cancer); format: cell-based; conditions: Renal Cancer
[16] = test system: PC-3; assay: NCI human tumor cell panel: PC-3 (Prostate Cancer); format: cell-based; conditions: PC-3, Prostate Cancer
[17] = test system: SK-OV-3; assay: NCI human tumor cell panel: SK-OV-3 (Ovarian Cancer); format: cell-based; conditions: SK-OV-3, Ovarian Cancer
[18] = test system: COLO 205; assay: NCI human tumor cell panel: COLO 205 (Colon Cancer); format: cell-based; conditions: COLO 205, Colon Cancer
[19] = test system: HS 578T; assay: NCI human tumor cell panel: HS 578T (Breast Cancer); format: cell-based; conditions: Breast Cancer
[20] = test system: K-562; assay: NCI human tumor cell panel: K-562 (Leukemia); format: cell-based; conditions: K562, K-562, Leukemia
[21] = test system: NCI-H226; assay: NCI human tumor cell panel: NCI-H226 (Non-Small Cell Lung Cancer); format: cell-based; conditions: NCI-H226, Non-Small Cell Lung Cancer
[22] = test system: SK-MEL-2; assay: NCI human tumor cell panel: SK-MEL-2 (Melanoma); format: cell-based; conditions: SK-MEL-2, Melanoma
[23] = test system: SF-268; assay: NCI human tumor cell panel: SF-268 (CNS Cancer); format: cell-based; conditions: SF-268, CNS Cancer
[24] = test system: A498; assay: NCI human tumor cell panel: A498 (Renal Cancer); format: cell-based; conditions: A498, Renal Cancer
[25] = test system: SK-MEL-28; assay: NCI human tumor cell panel: SK-MEL-28 (Melanoma); format: cell-based; conditions: SK-MEL-28, Melanoma
[26] = test system: TK-10; assay: NCI human tumor cell panel: TK-10 (Renal Cancer); format: cell-based; conditions: TK-10, Renal Cancer
[27] = test system: A549/ATCC; assay: NCI human tumor cell panel: A549/ATCC (Non-Small Cell Lung Cancer); format: cell-based; conditions: Non-Small Cell Lung Cancer
[28] = test system: T-47D; assay: NCI human tumor cell panel: T-47D (Breast Cancer); format: cell-based; conditions: T47D, Breast Cancer
[29] = read-out: Log10 GI50 (converted)
[30] = read-out: Log10 TGI (converted)

For `O=Cc1ccc(-c2ccc(-c3ccc(C=O)s3)[se]2)s1` [NSC 675345], the GI50 [1, 29] was over 100 µM, the IC (TGI) [1, 30] was over 100 µM and the GI50 [2, 29] was 32.4 µM. It also gave an IC (TGI) [2, 30] of over 100 µM, a GI50 [3] of over 100 µM and a GI50 [4, 29] of over 100 µM. It also gave an IC (TGI) [4, 30] of over 100 µM, a GI50 [5, 29] of 21.9 µM and an IC (TGI) [5, 30] of over 100 µM. It also gave a GI50 [6, 29] of 18.2 µM, an IC (TGI) [6, 30] of over 100 µM and a GI50 [7, 29] of 11 µM. It also gave an IC (TGI) [7, 30] of over 100 µM, a GI50 [8, 29] of 1.55 µM and an IC (TGI) [8, 30] of 5.37 µM. For the same compound, the GI50 ([9]; NCI-H522, read-out: Log10 GI50 (converted)) was 85.1 µM, the IC (TGI) ([9]; NCI-H522, read-out: Log10 TGI) was over 100 µM and the GI50 [10, 29] was over 100 µM. It also gave an IC (TGI) [10, 30] of over 100 µM, a GI50 [11, 29] of 31.6 µM and an IC (TGI) [11, 30] of over 100 µM. The GI50 [12, 29] was over 100 µM, the IC (TGI) [12, 30] was over 100 µM and the GI50 [13, 29] was 4.37 µM. It also gave an IC (TGI) [13, 30] of 22.9 µM, a GI50 [14, 29] of over 100 µM and an IC (TGI) [14, 30] of over 100 µM. It also gave a GI50 [15, 29] of 0.257 µM, an IC (TGI) [15, 30] of 1.66 µM and a GI50 [16, 29] of over 100 µM. The IC (TGI) [16, 30] was over 100 µM, the GI50 [17, 29] was 55 µM and the IC (TGI) [17, 30] was over 100 µM. It also gave a GI50 [18, 29] of 33.9 µM, an IC (TGI) [18, 30] of over 100 µM and a GI50 [19, 29] of 67.6 µM. For the same compound, the IC (TGI) [19, 30] was over 100 µM, the GI50 [20, 29] was 30.9 µM and the IC (TGI) [20, 30] was over 100 µM. For the same compound, the GI50 [21, 29] was 0.575 µM, the IC (TGI) [21, 30] was 2.45 µM and the GI50 [22, 29] was 77.6 µM. The IC (TGI) [22, 30] was over 100 µM, the GI50 [23, 29] was over 100 µM and the IC (TGI) [23, 30] was over 100 µM. The GI50 [24, 29] was 0.479 µM, the IC (TGI) [24, 30] was 1.55 µM and the GI50 [25, 29] was over 100 µM. The IC (TGI) [25, 30] was over 100 µM, the GI50 [26, 29] was over 100 µM and the IC (TGI) [26, 30] was over 100 µM. It also gave a GI50 [27, 29] of over 100 µM, an IC (TGI) [27, 30] of over 100 µM and a GI50 [28, 29] of 79.4 µM. The IC (TGI) [28, 30] was over 100 µM.
